{"source": "patent EP2667887B1", "about": "“PHARMACEUTICAL COMPOSITION COMPRISING THE PEPTIDE GLU-ASP-GLY AND USE FOR TREATING HELICOBACTER PYLORI INDUCED GASTRODUODENAL DISEASES” («Garmonia», Ltd., priority 2011, dated 2012)", "key": {"[1]": {"system": "human gastric epithelium cells SGC7901", "assay": "Effect on Helicobacter pylori-induced mitochondrial mechanisms of apoptosis in gastric epitheliocytes (mito-GFP confocal microscopy)", "format": "cell-based", "details": "Klacid 500 ng/mL as positive control, same conditions as peptide 10 µM", "description": "To evaluate the biological activity and effects of peptide H-Glu-Asp-Gly-OH on mitochondrial mechanisms of apoptosis in gastric epitheliocytes, induced by Helicobacter pylori germs, human gastric epithelium cells SGC7901 were studied. The cells were cultivated at 37°C in a damp incubation medium containing 50 mL/L CO2 in DMEM (Dulbecco's Modified Eagle's Medium, ICN Biomedicals) and 10% calf embryonic serum. A preliminary separation of cells for passaging was carried out in the ratio of 1:3-1:5 using a mixture of 0.125% trypsin, 0.02M EDTA (ethylenediaminetetraacetic acid), 0.02% glucose dissolved in a phosphate buffer. The cells were placed on a 24-well plate in the amount of 10^6 cells per well. The cells were passaged in a cultivation medium for 5 days and then taken for study.\nOn the 5th day after the beginning of cell passaging the peptide H-Glu-Asp-Gly-OH in the dose of 10 µM was administered in the cultivation medium, and in 30 minutes of incubation the cells were taken for study. Klacid antibiotic (clarithromycin, Abbott) in the dose of 500 ng/mL was administered to the cultures in the same conditions as positive control. […]\nThe status of isolated mitochondria was evaluated using immunofluorescent confocal laser microscopy. […]\nConfocal microscopy of mitochondria with optical density evaluation was performed in an inverted confocal microscope Olympus Fluoview CM FV300-IX70 using an apochromatic lens 606 UPlan (Olympus). A 488 nm excitation wave of argon laser was used in each chamber to specify mito-GFP fluorescence that verifies the structure of mitochondria."}, "modeled ulcer": {"system": "modeled ulcer", "assay": "Morphology study of the induced gastric ulcer (cysteamine-HCL + Helicobacter pylori)", "format": "in vivo, Sprague Dawley rats", "details": "treatment daily for 5 days, Klacid 10 mg intramuscularly", "description": "The study was carried out on 90 male Sprague Dawley rats (180-220 g) randomly subdivided into 9 groups (10 animals per group): • Group 1 - intact rats (saline solution) • Group 2 - modeled ulcer + saline solution • Group 3 (6 subgroups) - modeled ulcer + H-Glu-Asp-Gly-OH • Group 4 - modeled ulcer + Klacid antibiotic\nUlcer was modeled by three-time administration (in 4 hours) in the rat stomach of cysteamine-HCL (Aldrich, Milwannee, WI) by means of a probe in the dose of 25 mg per 100 g of body weight. The ulcer, approximately 28 mm^2 in size, appeared at the boundary between antral and fundal segments of the stomach 12 hours after the last administration. Simultaneously with the first administration of cysteamine-HCL a Helicobacter pylori culture (Curtin Matheson Scientific Inc, strain Cag J117, 100 microbial cells) was administered in the rat stomach through the same probe.\n(§1) A means on the basis of the pharmaceutical composition comprising the studied peptide H-Glu-Asp-Gly-OH was administered subcutaneously in the dose of 1 µg per kg of animal body weight (group 3a), 2,5 µg per kg of body weight (group 3b) and 10 µg per kg of body weight (group 3c) in 0,5 ml of saline solution daily, for 5 days from the occurrence of the stomach ulcer.\nas §1, with “The means” for “A means”, “administered intragastrically (through a probe)” for “administered subcutaneously”, “(group 3d),” for “(group 3a),”, “(group 3e)” for “(group 3b)”, “(group 3f)” for “(group 3c)”\nAntibiotic Klacid (clarithromycin, Abbott) was administered intramuscularly in the dose of 10 mg in 1 ml of saline solution daily for 5 days from the occurrence of the stomach ulcer.\nMaterial for study was taken from ulcer edge on the 7th day (for western blot assay and polymerase chain reaction in real time - RT-PCR), as well as on the 7th, 15th and 21st day for morphology study and confocal microscopy.\nFor a morphology study, pieces of gastric mucous membrane from the ulcer edge were fixed in 10% neutral formalin (pH 7.2), then the material was dried out in a Leica TP1020 automatic station (Leica) and covered with paraffin. 5 µm thick paraffin slices were placed on object plates covered with a poly-L-lysine film (Sigma). For a visual study the slices were stained with hematoxylin and eosin, as well as with picrofuxin by the van Gison method."}}}
{"smiles": "CC[C@H]1OC(=O)[C@H](C)[C@@H](O[C@H]2C[C@@](C)(OC)[C@@H](O)[C@H](C)O2)[C@H](C)[C@@H](O[C@@H]2O[C@H](C)C[C@H](N(C)C)[C@H]2O)[C@](C)(OC)C[C@@H](C)C(=O)[C@H](C)[C@@H](O)[C@]1(C)O", "note": "[Klacid, clarithromycin]", "values": [{"measurement": "biological activity (prevention of Helicobacter pylori-induced mitochondrial apoptosis disorder) relative to the peptide composition", "setting": "[1]", "value": "comparable in terms of efficiency"}, {"measurement": "ulcer pathomorphosis, 7th day", "setting": "modeled ulcer; 7th day after ulcer induction, peptide 1, 2,5, 10 µg/kg subcutaneously or intragastrically", "value": "largely similar to the changes in Group 3"}, {"measurement": "ulcer pathomorphosis, 15th day", "setting": "modeled ulcer; 15th day after ulcer induction, peptide 1, 2,5, 10 µg/kg subcutaneously or intragastrically", "value": "The same changes were observed"}, {"measurement": "ulcer pathomorphosis, 21st day", "setting": "modeled ulcer; 21st day after ulcer induction, peptide both methods of administration and three dosages", "value": "caused the same changes"}]}
